Residue numbers refer to the chain shown, from its start.

Holding throughout (parameters): species or system chicken
One assay deals with T1, non-glyc-HS2ST H142A (Gallus gallus, UniProt Q76KB1, H142A).
T1 construct: made in house; host or cells: E. coli Origami B (DE3)
T1 sequence (Q76KB1 69-356 H142A limits assumed): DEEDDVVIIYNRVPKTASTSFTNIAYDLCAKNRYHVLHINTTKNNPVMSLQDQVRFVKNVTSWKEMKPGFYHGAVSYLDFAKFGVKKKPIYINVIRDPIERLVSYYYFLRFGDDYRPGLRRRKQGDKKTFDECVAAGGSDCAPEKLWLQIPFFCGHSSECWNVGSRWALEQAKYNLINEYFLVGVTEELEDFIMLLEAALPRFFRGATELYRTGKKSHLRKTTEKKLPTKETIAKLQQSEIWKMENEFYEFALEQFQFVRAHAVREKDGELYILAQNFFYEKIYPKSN
Kind of assay: BLI equilibrium binding, non-glyc-HS2ST H142A. As to conditions: BLI saturation binding curves, n = 3, ± standard error of fit. The text has this: (§1) To assess whether the inhibitory compounds interact with the active site, point mutations were introduced in non-glyc-HS2ST (Fig. 4a). Four mutants of the catalytic residue (H142A/E/R/K) were created, along with a mutation of the residue that facilitates 2-O-sulfation of IdoA residues (R189A)[27]. Additionally, a negative control (NC) was generated containing multiple mutations of positively charged residues (R189A, R80E, and R184E) that reduced the net charge of each protein monomer by 5. The extent that the mutations affected affinity provided an indication that the ligand had been bound in the active site (Table 1 and Supplementary Fig. 1). While R189A markedly diminished the affinity for all compounds, the NC mutations reduced affinity to immeasurable levels. Removal of the catalytic side chain (H142A) enhanced the affinity of each compound, compared to the WT, by approximately 2–3-fold. Addition of a positive charge at this location (H142K/R) further enhanced the affinity for each compound, so much so that a KD value could be measured even for 2. The H142E mutation diminished the affinity of 5 by half compared to WT, but its effects were less significant for binding to 3 or 4.
(§2) The chicken HS2ST-Maltose Binding Protein (MBP) fusion protein was expressed and purified according to previous studies. The fusion protein was transformed into E. coli Origami B (DE3) cells, cultured at 37 °C until OD600 reached 0.5, then induced with isopropyl-β-D-thiogalactopyranoside and allowed to grow overnight at 20 °C. Cells were sonicated, followed by a two-step purification procedure. Whole-cell supernatant was passed through an amylose column with Tris buffer (25 mM Tris, 500 mM NaCl, pH 7.5). An elution buffer consisted of Tris Buffer with 40 mM Maltose. The amylose column eluent was concentrated and loaded on a Superdex 200 Increase 10/300 GL with PBS buffer (10 mM sodium phosphate, 150 mM NaCl, pH 7.8) to separate trimeric protein from aggregate and independent MBP (Supplementary Fig. 4). All reported mutations formed homotrimeric complexes according to the SEC profiles, including the negative control (NC = R189A/R80E/R184E). Protein concentration was assessed via UV at 280 nm (MW of trimer ~210 KDa, extinction coefficient ~119,000 M^−1 cm^−1 according to ExPASy ProtParam webtool[56]). The trimeric protein preparation was adjusted to 5% glycerol and stored at −20 °C until use. Additional non-glyc-HS2ST constructs were created with the Q5® Mutagenesis kit (New England Biolabs Inc.; cat. # E0554S) and sequenced at the Georgia Genomics Facility at the University of Georgia.
(§3) The Octet® RED96 system (FortéBio Inc.) was employed to detect the affinity of the enzymes for specific HS targets. […]

Another assay addresses T2, non-glyc-HS2ST R189A (Gallus gallus, UniProt Q76KB1, R189A).
T2 construct: made in house; host or cells: E. coli Origami B (DE3)
T2 sequence (Q76KB1 69-356 R189A limits assumed): T1 sequence (Q76KB1 69-356 H142A limits assumed) with A74H, R121A
Put plainly: BLI equilibrium binding, non-glyc-HS2ST R189A. As to conditions: BLI saturation binding curves, n = 3, ± standard error of fit; — = response too weak to fit.
From the text: as §1, §2, §3

In the next assay the target is T3, non-glyc-HS2ST H142E (Gallus gallus, UniProt Q76KB1, H142E).
T3 construct: made in house; host or cells: E. coli Origami B (DE3)
T3 sequence (Q76KB1 69-356 H142E limits assumed): T1 sequence (Q76KB1 69-356 H142A limits assumed) with A74E
Put plainly: BLI equilibrium binding, non-glyc-HS2ST H142E. The note with it: for Kd: BLI saturation binding curves, n = 3, ± standard error of fit, — = response too weak to fit.
From the text: as §1, §2
The Octet® RED96 system (FortéBio Inc.) was employed to detect the affinity of the enzymes for specific HS targets. Due to the small size of the glycan and the deep HS2ST binding cavity, the glycan and protein were treated as ligand and analyte, respectively. Varyingly sulfated HS fragments conjugated to biotin linkers were purchased from Glycan Therapeutics Inc. with purities greater than 93% according to HPLC (sequences located in Supplementary Table 1). The glycans were immobilized onto streptavidin (SA) labeled biosensors (FortéBio; cat. #18–5019) at 0.5 µg/mL. Experiments were performed at 25 °C in PBS Buffer (10 mM sodium phosphate, 150 mM NaCl, pH 7.8) with a final concentration of 1X Pall Kinetics buffer (FortéBio Inc; cat. #18–1092). Fresh biosensors and protein samples were used for each measurement (no regeneration step). […]

“GlcNS6S-GlcA-GlcNS3S6S-IdoA2S-GlcNS6S-GlcA~ [Compound 4]”: the Kd at non-glyc-HS2ST H142A came to 10 ± 2 nM; on non-glyc-HS2ST R189A it was 63 ± 5 nM; at non-glyc-HS2ST H142E it was 19 ± 3 nM.

With “GlcNS6S-GlcA-GlcNS6S-GlcA-GlcNS6S-GlcA~ [Compound 5]”, the Kd was 25 ± 2 nM at non-glyc-HS2ST H142A, over 500 nM on non-glyc-HS2ST R189A and 140 ± 11 nM at non-glyc-HS2ST H142E. Further, at non-glyc-HS2ST H142E (non-glyc-HS2ST H142E versus WT, BLI), the “Diminution of affinity by H142E compared to WT” value is given as “half”.

“GlcNS6S-GlcA-GlcNS6S-IdoA2S-GlcNS6S-GlcA~ [Compound 3]”: the Kd on non-glyc-HS2ST H142A is 20 ± 3 nM; at non-glyc-HS2ST R189A it was 448 ± 124 nM; at non-glyc-HS2ST H142E, 41 ± 4 nM.

Regarding “GlcNS-GlcA-GlcNS-IdoA2S-GlcNS-GlcA~ [Compound 2]”, the figures for the Kd on non-glyc-HS2ST H142A, on non-glyc-HS2ST R189A and on non-glyc-HS2ST H142E were 460 ± 91 nM, over 500 nM and over 500 nM, respectively.

(Values after PMC6081452, “Downstream Products are Potent Inhibitors of the Heparan Sulfate 2-O-Sulfotransferase” (Scientific Reports, 2018).)
